Results from US20230242964A1, “BIODEGRADABLE BIOCHEMICAL SENSOR FOR DETERMINING THE PRESENCE AND/OR THE LEVEL OF PESTICIDES OR ENDOCRINE DISRUPTORS: METHOD AND COMPOSITION” (priority 2018, published 2023).

What was measured:
E. coli EPSP Synthase = E. coli EPSP Synthase (Escherichia coli, UniProt P0A6D3); assay: EPSP synthase network #2B plugged to phosphate detection
Excerpt: The entry of the network is composed of: the EPSP synthase that uses the phospho-enol pyruvate (PEP) and the 3-phospho Shikimate to produce 5-O-(1-caroxyvinyl)-3-phosphoshikimate and inorganic phosphate.
Then 2 different networks have been tested: • One that converts the inorganic phosphate (Pi): Pi is combined with Inosine in the presence of the purine nucleoside phosphorylase to give Hypoxanthine. The Hypoxantine lead to Xanthine and H2O2 in the presence of Xanthine Oxidase. The Horseradish peroxidase uses the H2O2 to convert the O-dianisidine or the Amplex Red and give a colorimetric or fluorimetric signal detectable.
First, the network has been tested in liquid buffer without vesicle or gel. […] Reaction was followed for 1 hour at 25° C. by registering the absorbance at 450 nm on a spectrophotometer. • One that converts the 5-O-(1-caroxyvinyl)-3-phosphoshikimate produced by the EPSP synthase: 5-O-(1-caroxyvinyl)-3-phosphoshikimate is metabolized by the Chorismate Synthase to give chorismate. This Chorismate is then transformed in pyruvate by the chorismate Lyase. Finaly the pyruvate is used by the Lactate dehydrogenase in the presence of NADH to give lactate and NAD+. The NADH consumption is followed by the change of fluorescence emission at 445 nm (Excitation at 340 nm)—or change of absorbance at 340 nm on a spectrophotometer. • 3.
The reaction was followed by the change of fluorescence on a fluorimeter (Excitation at 530 nm/Emission at 590 nm) or by the change of absorbance at 450 nm on a spectrophotometer. It allowed us to determine the activity of the EPSP synthase toward Phosphoenol Pyruvate (PEP).

BliGO SCF4 mutant = details: cited from earlier work
[1] = molecular target: T1, Bacillus subtilis H244K Glycine/Glyphosate oxidase (Bacillus subtilis, UniProt O31616, H244K); assay: Glycine biochemical network #3, Amplex red/HRP fluorescence and colorimetric readout; details: glyphosate at 100 μM, Tris buffer 50 mM pH 7,5
T1 construct: purchased Creative enzyme NATE-1674
Excerpt: It allowed us to detect the glycine.

Sequence of E. coli EPSP Synthase (P0A6D3 whole entry): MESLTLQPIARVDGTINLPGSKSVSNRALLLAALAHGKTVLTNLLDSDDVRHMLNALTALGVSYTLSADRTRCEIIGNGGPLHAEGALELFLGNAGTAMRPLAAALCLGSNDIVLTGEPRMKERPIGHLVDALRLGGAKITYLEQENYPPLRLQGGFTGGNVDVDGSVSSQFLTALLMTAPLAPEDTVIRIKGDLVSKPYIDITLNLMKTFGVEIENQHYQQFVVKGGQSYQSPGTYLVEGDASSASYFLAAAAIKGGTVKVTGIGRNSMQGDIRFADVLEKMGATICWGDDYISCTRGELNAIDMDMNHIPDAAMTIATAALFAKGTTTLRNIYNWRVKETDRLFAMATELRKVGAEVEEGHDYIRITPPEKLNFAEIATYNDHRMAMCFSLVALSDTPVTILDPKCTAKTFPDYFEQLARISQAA
T1 sequence (O31616 whole entry H244K): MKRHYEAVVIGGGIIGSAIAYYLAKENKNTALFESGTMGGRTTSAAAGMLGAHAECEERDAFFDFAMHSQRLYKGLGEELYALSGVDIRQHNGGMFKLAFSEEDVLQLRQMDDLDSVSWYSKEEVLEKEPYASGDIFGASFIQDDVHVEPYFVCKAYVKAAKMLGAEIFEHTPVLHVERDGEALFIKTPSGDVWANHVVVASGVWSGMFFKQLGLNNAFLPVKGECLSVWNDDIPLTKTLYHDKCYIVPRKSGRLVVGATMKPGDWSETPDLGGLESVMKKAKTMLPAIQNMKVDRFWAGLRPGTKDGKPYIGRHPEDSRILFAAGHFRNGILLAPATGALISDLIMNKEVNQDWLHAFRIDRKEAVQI

C=C(OP(=O)(O)O)C(=O)O [PEP, phosphoenolpyruvate]
EPSP affinity for PEP (E. coli EPSP Synthase; 50 mM Hepes pH 7, 25° C.): 14 µM
Vmax of EPSP synthase toward PEP (E. coli EPSP Synthase; 50 mM Hepes pH 7, 25° C.): 1.026e-08 mol/L/s

NCC(=O)O [glycine]
decrease of activity to glycine compared to WT (BliGO SCF4 mutant; BliGO SCF4 mutant vs WT): 113 fold

O=C(O)CNCP(=O)(O)O [glyphosate]
effect on the EPSP synthase (E. coli EPSP Synthase; glyphosate 0 to 2 mM, concentration dependent): inhibitory effect
increase of affinity toward glyphosate compared to WT (BliGO SCF4 mutant; BliGO SCF4 mutant vs WT): 8 fold
affinity toward glyphosate (BliGO SCF4 mutant; BliGO SCF4 mutant): 1.58 mM
detection by network #3 [1]: absence of detection
